Series [1] has as its system NCI-H1155 (lung cancer cells). As to the kind of experiment: CytoX cell viability assay in NCI-H1155 lung cancer cells. Particulars: Homo sapiens, NCI-H1155, 72 h; for viability at 0.01 µM: read-out: NCI-H1155 (% viability) at 10 nM; for viability at 0.5 µM: read-out: NCI-H1155 (% viability) at 500 nM.
Procedure: (§1) The viability of NCI-H1155 (lung cancer cells) was measured using the CytoX cell viability assay kit (LPS Solution, #CYT3000). […] CytoX solution was then added to the cells and incubated for 1 hour.
The subject of series [2] is NCI-H1155 (lung cancer cells).
Procedure: as §1
For series [3], the system named is KG-1 cells. In words: Cytotoxicity assay (WST-1) in KG-1 cancer cells. Particulars: Homo sapiens, 72 hours. The class given is cell-based. Here is the method: To evaluate the effects of the compounds of the present disclosure on cancer cells, a cytotoxicity assay was conducted as follows.
Cancer cells (KG-1) were seeded at a density of 10,000 cells per well in 96-well plates. The compound of the present disclosure and control compounds (Comparative Compounds 1, 2, and 3) were treated at predetermined concentrations. After 72 hours, the cells were treated with WST-1 reagent for 1 hour. Then, absorbance was read at 450 nm using a SpectraMax spectrophotometer to determine cell viability.

Broadly, the viability is a per cent measure of how many cells are alive, often set against a control. The term IC50 denotes the point on the concentration scale where inhibition reaches its midpoint.

For `O=C1CCC(N2Cc3cc(CNC(=O)[C@@H]4C[C@H]4c4ccc(Cl)cc4)ccc3C2=O)C(=O)N1` (mixture of isomers) [Cpd. 5, (1R,2R)-2-(4-chlorophenyl)-N-((2-(2,6-dioxopiperidin-3-yl)-1-oxoisoindolin-5-yl)methyl)cyclopropane-1-carboxamide racemic mixture], in series [1], the viability at 0.01 µM amounted to 2% and the viability at 0.5 µM came to 4%.
Consider `O=C1CCC(N2Cc3cc(CNC(=O)C(F)(F)c4ccc(Cl)cc4)ccc3C2=O)C(=O)N1` (stereo not drawn) [CC-90009 (Eragidomide), Eragidomide], for which the “NCI-H1155 (% viability) at 10 nM” value in series [2] (0.01 µM) worked out at 85.0%. The “NCI-H1155 (% viability) at 500 nM” value in series [2] (0.5 µM) was determined as 23.25%.
`O=C1CCC(N2Cc3cc(CNC(=O)c4cc5ccccc5cn4)ccc3C2=O)C(=O)N1` (stereo not drawn) [Comparative Cpd. 1, N-((2-(2,6-dioxopiperidin-3-yl)-1-oxoisoindolin-5-yl)methyl) isoquinoline-3-carboxamide] gave an IC50 in series [3] of over 10 µM.
`O=C1CCC(N2Cc3cc(CNC(=O)c4cnc5ccccc5n4)ccc3C2=O)C(=O)N1` (stereo not drawn) [Comparative Cpd. 2, N-((2-(2,6-dioxopiperidin-3-yl)-1-oxoisoindolin-5-yl)methyl)quinoxaline-2-carboxamide]: in series [3], the IC50 is over 10 µM.
In the case of `O=C1CCC(N2Cc3cc(CNC(=O)c4ccc5cc(Cl)ccc5n4)ccc3C2=O)C(=O)N1` (stereo not drawn) [Comparative Cpd. 3, 6-chloro-N-((2-(2,6-dioxopiperidin-3-yl)-1-oxoisoindolin-5-yl)methyl) quinoline-2-carboxamide], it took 4.1 µM to reach half-maximal inhibition in series [3] (IC50).
Still for that read-out and setting: the figure for `O=C1CCC(N2Cc3cc(CNC(=O)[C@@H]4C[C@H]4c4ccccc4)ccc3C2=O)C(=O)N1` (stereo partly drawn) [Cpd. 1, (1R,2R)—N-((2-(2,6-dioxopiperidin-3-yl)-1-oxoisoindolin-5-yl)methyl)-2-phenylcyclopropane-1-carboxamide] is 0.002 µM.
As for `O=C1CCC(N2Cc3cc(CNC(=O)[C@@H]4C[C@H]4c4ccc(Cl)cc4)ccc3C2=O)C(=O)N1` (stereo partly drawn) [Cpd. 3, (1R,2R)-2-(4-chlorophenyl)-N-((2-(2,6-dioxopiperidin-3-yl)-1-oxoisoindolin-5-yl)methyl)cyclopropane-1-carboxamide], in series [1], the viability at 0.01 µM was found to be 4% and the viability at 0.5 µM was found to be 4%.
For `O=C1CCC(N2Cc3cc(CNC(=O)[C@@H]4C[C@@H]4c4ccccc4)ccc3C2=O)C(=O)N1` (stereo partly drawn) [Cpd. 4, (1R,2S)—N-((2-(2,6-dioxopiperidin-3-yl)-1-oxoisoindolin-5-yl)methyl)-2-phenylcyclopropane-1-carboxamide], in series [1], the viability at 0.01 µM worked out at 94% and the viability at 0.5 µM was determined as 95%.
With `O=C1CCC(N2Cc3cc(CNC(=O)[C@@H]4C[C@H]4c4cccc(Cl)c4)ccc3C2=O)C(=O)N1` (stereo partly drawn) [Cpd. 6, (1R,2R)-2-(3-chlorophenyl)-N-((2-(2,6-dioxopiperidin-3-yl)-1-oxoisoindolin-5-yl)methyl)cyclopropane-1-carboxamide], in series [1], the viability at 0.01 µM was found to be 5% and the viability at 0.5 µM was found to be 4%.
For `O=C1CCC(N2Cc3cc(CNC(=O)[C@H]4C[C@@H]4c4ccccc4)ccc3C2=O)C(=O)N1` (stereo partly drawn) [Cpd. 7, (1S,2S)—N-((2-(2,6-dioxopiperidin-3-yl)-1-oxoisoindolin-5-yl)methyl)-2-phenylcyclopropane-1-carboxamide], in series [1], the viability at 0.01 µM was 3% and the viability at 0.5 µM is 4%.
As to `O=C1CCC(N2Cc3cc(CNC(=O)[C@@H]4C[C@H]4c4ccc(F)cc4)ccc3C2=O)C(=O)N1` (stereo partly drawn) [Cpd. 8, (1R,2R)—N-((2-(2,6-dioxopiperidin-3-yl)-1-oxoisoindolin-5-yl)methyl)-2-(4-fluorophenyl)cyclopropane-1-carboxamide], in series [1], the viability at 0.01 µM turned out to be 48% and the viability at 0.5 µM was determined as 26%.
Turning to `O=C1CCC(N2Cc3cc(CNC(=O)[C@@H]4C[C@H]4c4cccc(F)c4)ccc3C2=O)C(=O)N1` (stereo partly drawn) [Cpd. 9, (1R,2R)—N-((2-(2,6-dioxopiperidin-3-yl)-1-oxoisoindolin-5-yl)methyl)-2-(3-fluorophenyl)cyclopropane-1-carboxamide], in series [1], the viability at 0.01 µM amounted to 52% and the viability at 0.5 µM was determined as 25%.
Consider `O=C1CCC(N2Cc3cc(CNC(=O)[C@H]4C[C@@H]4c4cccc(Cl)c4)ccc3C2=O)C(=O)N1` (stereo partly drawn) [Cpd. 10, (1S,2S)-2-(3-chlorophenyl)-N-((2-(2,6-dioxopiperidin-3-yl)-1-oxoisoindolin-5-yl)methyl)cyclopropane-1-carboxamide], for which, in series [1], the viability at 0.01 µM is 39% and the viability at 0.5 µM came out at 25%.
On to `O=C1CCC(N2Cc3cc(CNC(=O)C4CC4c4ccc(C(F)(F)F)cc4)ccc3C2=O)C(=O)N1` (stereo not drawn) [Cpd. 11, N-((2-(2,6-dioxopiperidin-3-yl)-1-oxoisoindolin-5-yl)methyl)-2-(4-(trifluoromethyl)phenyl)cyclopropane-1-carboxamide], for which, in series [1], the viability at 0.01 µM came to 79% and the viability at 0.5 µM worked out at 34%.
As for `Cc1ccc([C@H]2C[C@@H]2C(=O)NCc2ccc3c(c2)CN(C2CCC(=O)NC2=O)C3=O)cc1` (stereo partly drawn) [Cpd. 12, (1S,2S)—N-((2-(2,6-dioxopiperidin-3-yl)-1-oxoisoindolin-5-yl)methyl)-2-(p-tolyl)cyclopropane-1-carboxamide], in series [1], the viability at 0.01 µM was determined as 44% and the viability at 0.5 µM is 27%.
As for `O=C1CCC(N2Cc3cc(CNC(=O)C4CC4c4ccc(Cl)cc4Cl)ccc3C2=O)C(=O)N1` (stereo not drawn) [Cpd. 13, 2-(2,4-dichlorophenyl)-N-((2-(2,6-dioxopiperidin-3-yl)-1-oxoisoindolin-5-yl)methyl)cyclopropane-1-carboxamide], in series [1], the viability at 0.01 µM came out at 27% and the viability at 0.5 µM stood at 24%.
Take `O=C1CCC(N2Cc3cc(CNC(=O)C4CCC4c4ccccc4)ccc3C2=O)C(=O)N1` (stereo not drawn) [Cpd. 14, N-((2-(2,6-dioxopiperidin-3-yl)-1-oxoisoindolin-5-yl)methyl)-2-phenylcyclobutane-1-carboxamide]: in series [1], the viability at 0.01 µM is 96% and the viability at 0.5 µM came to 57%.

(Values after patent US20260174859A1, “ISOINDOLINONE DERIVATIVE HAVING ARYLCYCLOALKYLAMIDE STRUCTURE, AND USE THEREOF” (ONCORD BIO INC, priority 2022, published 2026).)
